Values of other authors in patent US11730774B2, “Bacterial biofilms and cancer” (THE JOHNS HOPKINS UNIVERSITY, priority 2018, dated 2023).

Tested on: bacteria
Settings: 6-week-old mice, water containing 500 mg/L cefoxitin for 48 hours; by 24 hours

CO[C@@]1(NC(=O)Cc2cccs2)C(=O)N2C(C(=O)O)=C(COC(N)=O)CS[C@@H]21 [Cefoxitin]
detectable bacteria by culture or 16S rRNA qPCR: absence of detectable bacteria
